Values quoted from earlier work in patent publication US11878071B2, “Product for dyeing keratinous material, containing aminosilicone, a chromophoric compound, preservative and a fatty constituent” (Henkel AG & Co. KGaA, priority 2019, dated 2024).

Conditions: 25° C.

Structure (SMILES)	solubility in water
O=S(=O)([O-])c1ccc(N=Nc2c(O)ccc3ccccc23)cc1.[Na+] [Acid Orange 7, sodium salt of 4-[(2-hydroxy-1-naphthyl)azo]benzene sulphonate]	more than 7 g/L
O=C([O-])c1c(Cl)c(Cl)c(Cl)c(Cl)c1-c1c2c(Br)cc(=O)c(Br)c-2oc2c(Br)c(O)cc(Br)c12.O=C([O-])c1c(Cl)c(Cl)c(Cl)c(Cl)c1-c1c2c(Br)cc(=O)c(Br)c-2oc2c(Br)c(O)cc(Br)c12.[Na+].[Na+] [Acid Red 92, disodium salt of 3,4,5,6-tetrachloro-2-(1,4,5,8-tetrabromo-6-hydroxy-3-oxoxanthen-9-yl)benzoic acid]	greater than 10 g/L
O=C([O-])C1=NN(c2ccc(S(=O)(=O)[O-])cc2)C(=O)C1N=Nc1ccc(S(=O)(=O)[O-])cc1.[Na+].[Na+].[Na+] (centres unmarked) [Acid Yellow 23, trisodium salt of 4,5-dihydro-5-oxo-1-(4-sulfophenyl)-4-((4-sulfophenyl)azo)-1H-pyrazole-3-carboxylic acid]	highly soluble in water

The remaining lines, values ahead:

solubility in water	Structure (SMILES)
2500 µg/mL	Nc1cc(S(=O)(=O)[O-])cc2cc(S(=O)(=O)[O-])c(N=Nc3ccccc3)c(O)c12.[Na+].[Na+] [Acid Red 33, diantrium salt of 5-amino-4-hydroxy-3-(phenylazo)-naphthalene-2,7-disulphonate]
more than 20 % by weight	CCN(Cc1cccc(S(=O)(=O)[O-])c1)c1ccc(C(=C2C=CC(=[N+](CC)Cc3cccc(S(=O)(=O)[O-])c3)C=C2)c2ccccc2S(=O)(=O)[O-])cc1.[Na+].[Na+] [Acid Blue 9]
